Measured values as given in patent US10899732B2, “Substituted benzamides useful as sodium channel blockers” (GENENTECH, INC., priority 2015, dated 2021).
pIC50: −log10 of the molar value. Structures can show the parent of a compound that is named as a salt.

How the values were obtained:
[1] = target: T1, hNav1.7 (Homo sapiens, UniProt Q15858); assay: Tritiated sulfonamide competitive binding to membranes from cells expressing hNav1.7 and the β1 subunit (LBA); settings: competition with 100 pM [3H]compound, 18 h, room temperature; read-out: Nav1.7 (LBA)
T1 construct: expressed in transfected cells
T1 sequence (Q15858 1-1977 isoform Q15858-3): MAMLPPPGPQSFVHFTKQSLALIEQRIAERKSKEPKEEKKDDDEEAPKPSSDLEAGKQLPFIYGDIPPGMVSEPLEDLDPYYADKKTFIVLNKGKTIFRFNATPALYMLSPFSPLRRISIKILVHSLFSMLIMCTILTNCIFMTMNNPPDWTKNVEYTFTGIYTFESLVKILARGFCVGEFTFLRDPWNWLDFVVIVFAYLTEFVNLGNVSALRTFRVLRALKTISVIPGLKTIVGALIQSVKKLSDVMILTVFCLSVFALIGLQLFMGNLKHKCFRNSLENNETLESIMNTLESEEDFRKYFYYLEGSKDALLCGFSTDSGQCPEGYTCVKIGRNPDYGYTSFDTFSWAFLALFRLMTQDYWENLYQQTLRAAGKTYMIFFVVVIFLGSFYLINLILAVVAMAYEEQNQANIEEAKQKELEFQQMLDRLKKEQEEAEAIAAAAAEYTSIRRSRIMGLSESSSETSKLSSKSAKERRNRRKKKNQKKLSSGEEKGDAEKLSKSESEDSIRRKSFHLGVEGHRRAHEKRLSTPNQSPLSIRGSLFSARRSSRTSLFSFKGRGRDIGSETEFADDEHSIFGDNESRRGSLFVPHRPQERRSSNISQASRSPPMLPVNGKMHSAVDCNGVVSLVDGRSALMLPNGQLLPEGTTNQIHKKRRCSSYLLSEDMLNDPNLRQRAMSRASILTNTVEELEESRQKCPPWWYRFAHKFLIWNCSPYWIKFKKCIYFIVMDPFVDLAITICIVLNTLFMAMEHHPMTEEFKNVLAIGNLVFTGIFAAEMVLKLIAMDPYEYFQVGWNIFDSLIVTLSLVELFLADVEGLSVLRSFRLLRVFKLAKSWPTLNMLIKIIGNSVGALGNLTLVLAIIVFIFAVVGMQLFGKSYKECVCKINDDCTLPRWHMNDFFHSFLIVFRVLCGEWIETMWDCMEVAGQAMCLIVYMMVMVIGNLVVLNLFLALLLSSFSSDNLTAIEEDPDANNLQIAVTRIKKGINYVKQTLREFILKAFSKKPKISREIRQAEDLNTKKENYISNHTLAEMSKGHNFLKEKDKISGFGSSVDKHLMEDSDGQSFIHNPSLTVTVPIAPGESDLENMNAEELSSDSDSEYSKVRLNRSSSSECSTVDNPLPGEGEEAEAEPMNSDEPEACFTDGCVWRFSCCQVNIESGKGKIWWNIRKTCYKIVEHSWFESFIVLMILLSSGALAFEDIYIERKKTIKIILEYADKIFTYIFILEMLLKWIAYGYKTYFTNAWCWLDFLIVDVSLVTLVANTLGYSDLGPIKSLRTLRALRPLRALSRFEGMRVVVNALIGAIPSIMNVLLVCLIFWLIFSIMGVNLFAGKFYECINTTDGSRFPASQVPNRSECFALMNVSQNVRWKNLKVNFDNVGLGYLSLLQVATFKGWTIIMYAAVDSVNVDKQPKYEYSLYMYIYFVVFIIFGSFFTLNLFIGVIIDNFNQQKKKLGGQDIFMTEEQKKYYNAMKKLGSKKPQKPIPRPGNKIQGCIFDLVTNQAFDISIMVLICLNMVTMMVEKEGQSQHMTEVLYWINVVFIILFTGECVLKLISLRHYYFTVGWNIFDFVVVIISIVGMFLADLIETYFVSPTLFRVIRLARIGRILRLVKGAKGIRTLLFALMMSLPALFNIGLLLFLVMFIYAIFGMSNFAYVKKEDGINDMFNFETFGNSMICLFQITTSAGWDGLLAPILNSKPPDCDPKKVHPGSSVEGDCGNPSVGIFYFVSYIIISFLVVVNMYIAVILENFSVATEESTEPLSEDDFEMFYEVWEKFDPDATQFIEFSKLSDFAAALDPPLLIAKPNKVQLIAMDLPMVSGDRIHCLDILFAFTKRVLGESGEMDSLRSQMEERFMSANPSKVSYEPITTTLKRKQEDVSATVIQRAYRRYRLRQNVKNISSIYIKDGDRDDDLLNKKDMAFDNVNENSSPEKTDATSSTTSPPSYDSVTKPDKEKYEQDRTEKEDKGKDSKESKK
T1 sequence (Q07699 19-218 partner): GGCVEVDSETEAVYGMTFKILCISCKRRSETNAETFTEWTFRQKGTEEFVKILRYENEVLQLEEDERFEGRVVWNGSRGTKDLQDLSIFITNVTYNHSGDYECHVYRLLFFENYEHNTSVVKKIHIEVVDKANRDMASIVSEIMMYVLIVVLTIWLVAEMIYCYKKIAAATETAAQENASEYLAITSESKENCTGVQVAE
Description: Tritiated Sulfonamide Binding to Membranes Isolated from Cells that Heterologously Express hNav1.7 and the β1 Subunit
Preparation of membranes containing recombinantly expressed sodium channels: Frozen recombinant cell pellets were thawed on ice and diluted to 4 times the cell pellet weight with ice cold 50 mM Tris HCl, pH 7.4 buffer. The cell suspensions were homogenized on ice using a motorized glass dounce homogenizer. Homogenates were further diluted 8.4 times with ice cold 50 mM Tris HCl, pH 7.4 buffer and then centrifuged at 200×g at 4° C. for 15 min. The supernatants were collected and centrifuged at 10000×g at 4° C. for 50 min. The pellets were then re-suspended in 100 mM NaCl, 20 mM Tris HCl, pH 7.4 buffer containing 1% v/v protease inhibitors (Calbiochem) and re-homogenized on ice. The homogenized membranes were then processed through a syringe equipped with a 26 gauge needle. Protein concentrations were determined by Bradford Assay and the membranes were stored at −80° C.
Saturation experiments. A competitive NaV1.7 inhibitor having a methyl group was tritiated. Three tritiums were incorporated in place of methyl hydrogens to generate [^3H]compound. Binding of this radioligand was preformed in 5 mL borosilicate glass test tubes at room temperature. Binding was initiated by adding membranes to increasing concentrations of [^3H]compound in 100 mM NaCl, 20 mM Tris HCl, pH 7.4 buffer containing 0.01% w/v bovine serum albumin (BSA) for 18 h. Non-specific binding was determined in the presence of 1 μM unlabelled compound. After 18 h, the reactants were filtered through GF/C glass fiber filters presoaked in 0.5% w/v polyethylene imine. Filters were washed with 15 mL ice cold 100 mM NaCl, 20 mM Tris HCl, pH 7.4 buffer containing 0.25% BSA to separate bound from free ligand. [^3H]compound bound to filters was quantified by liquid scintillation counting.
Binding reactions were performed in 96-well polypropylene plates at room temperature for 18 h. In 360 μL, membranes were incubated with 100 pM [^3H]compound and increasing concentrations of Test Compound. Non-specific binding was defined in the presence of 1 μM unlabelled compound. Reactions were transferred and filtered through 96-well glass fiber/C filter plates presoaked with 0.5% polyethylene imine. The filtered reactions were washed 5 times with 200 μL ice cold buffer containing 0.25% BSA. Bound radioactivity was determined by liquid scintillation counting.
Data Analysis: For saturation experiments, non-specific binding was subtracted from total binding to provide specific binding and these values were recalculated in terms of pmol ligand bound per mg protein. Saturation curves were constructed and dissociation constants were calculated using the single site ligand binding model: Beq=(Bmax*X)/(X+Kd), where Beq is the amount of ligand bound at equilibrium, Bmax is the maximum receptor density, Kd is the dissociation constant for the ligand, and X is the free ligand concentration. For competition studies percent inhibition was determined and IC50 values were calculated using a 4 parameter logistic model (% inhibition=(A+((B−A)/(1+((x/C)^D)))) using XLfit, where A and B are the maximal and minimum inhibition respectively, C is the IC50 concentration and D is the (Hill) slope.

[2] = target: T2, NaV1.5 (Homo sapiens, UniProt Q14524); assay: Patch voltage clamp electrophysiology assay (EP), NaV1.5 in HEK-293 cells; type: cell-based; settings: HEK-293, β1 coexpressed, held at -60 mV (inactivated state)
T2 construct: expression vector containing the full-length cDNA coding for the desired human sodium channel α-subunit; expressed in transfected cells; host or cells: HEK-293
T2 sequence (Q14524 whole entry): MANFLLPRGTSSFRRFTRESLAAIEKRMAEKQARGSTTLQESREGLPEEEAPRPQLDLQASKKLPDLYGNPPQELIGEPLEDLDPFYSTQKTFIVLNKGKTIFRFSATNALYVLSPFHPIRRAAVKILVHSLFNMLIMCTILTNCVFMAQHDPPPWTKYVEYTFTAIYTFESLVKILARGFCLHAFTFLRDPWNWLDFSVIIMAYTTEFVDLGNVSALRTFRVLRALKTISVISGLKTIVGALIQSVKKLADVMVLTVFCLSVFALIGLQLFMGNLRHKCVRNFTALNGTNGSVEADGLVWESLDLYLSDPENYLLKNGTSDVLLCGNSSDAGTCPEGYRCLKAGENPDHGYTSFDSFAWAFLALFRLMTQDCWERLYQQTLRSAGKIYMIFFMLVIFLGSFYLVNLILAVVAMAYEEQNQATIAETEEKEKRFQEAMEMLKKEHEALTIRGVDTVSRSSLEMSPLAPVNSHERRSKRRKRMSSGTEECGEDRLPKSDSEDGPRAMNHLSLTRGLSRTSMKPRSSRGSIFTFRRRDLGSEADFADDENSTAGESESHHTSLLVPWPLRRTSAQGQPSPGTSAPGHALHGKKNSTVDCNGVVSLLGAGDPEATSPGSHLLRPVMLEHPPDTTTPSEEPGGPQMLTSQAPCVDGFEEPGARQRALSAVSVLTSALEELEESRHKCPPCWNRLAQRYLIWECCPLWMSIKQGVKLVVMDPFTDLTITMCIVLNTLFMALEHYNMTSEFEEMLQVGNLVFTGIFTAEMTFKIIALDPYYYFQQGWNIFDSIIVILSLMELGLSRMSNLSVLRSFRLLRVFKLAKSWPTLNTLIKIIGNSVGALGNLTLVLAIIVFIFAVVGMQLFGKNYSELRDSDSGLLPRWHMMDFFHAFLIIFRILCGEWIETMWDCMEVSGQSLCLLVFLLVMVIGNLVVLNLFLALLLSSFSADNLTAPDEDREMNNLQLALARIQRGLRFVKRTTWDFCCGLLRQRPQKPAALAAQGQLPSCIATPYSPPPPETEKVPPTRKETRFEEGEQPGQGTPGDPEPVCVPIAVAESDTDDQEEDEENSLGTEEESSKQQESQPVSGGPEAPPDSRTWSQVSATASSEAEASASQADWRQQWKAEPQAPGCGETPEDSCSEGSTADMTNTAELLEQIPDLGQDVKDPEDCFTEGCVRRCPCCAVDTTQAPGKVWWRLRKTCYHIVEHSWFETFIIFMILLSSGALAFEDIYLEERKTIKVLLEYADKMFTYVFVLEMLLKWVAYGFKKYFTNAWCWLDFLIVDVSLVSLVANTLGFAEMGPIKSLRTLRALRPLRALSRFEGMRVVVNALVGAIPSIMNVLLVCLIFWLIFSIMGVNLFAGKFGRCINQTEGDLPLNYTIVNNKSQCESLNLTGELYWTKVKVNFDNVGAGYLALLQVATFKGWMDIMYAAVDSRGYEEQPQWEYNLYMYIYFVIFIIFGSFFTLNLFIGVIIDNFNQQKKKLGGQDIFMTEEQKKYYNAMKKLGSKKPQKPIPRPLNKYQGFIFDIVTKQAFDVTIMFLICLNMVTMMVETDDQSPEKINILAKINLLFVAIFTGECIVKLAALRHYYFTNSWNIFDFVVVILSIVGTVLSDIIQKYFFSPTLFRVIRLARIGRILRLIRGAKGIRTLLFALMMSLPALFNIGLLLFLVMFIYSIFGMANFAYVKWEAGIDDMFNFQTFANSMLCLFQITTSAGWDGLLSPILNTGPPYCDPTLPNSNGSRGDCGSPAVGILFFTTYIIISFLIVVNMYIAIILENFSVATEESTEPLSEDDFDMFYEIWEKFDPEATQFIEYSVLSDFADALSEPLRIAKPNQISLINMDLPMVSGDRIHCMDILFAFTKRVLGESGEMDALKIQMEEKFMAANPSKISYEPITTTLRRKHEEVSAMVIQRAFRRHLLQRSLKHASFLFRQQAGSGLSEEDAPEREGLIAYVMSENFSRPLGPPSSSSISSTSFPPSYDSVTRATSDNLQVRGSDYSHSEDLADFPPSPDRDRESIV
Excerpt: (§1) Electrophysiological Assay (EP) (In Vitro Assay)
(§2) Patch voltage clamp electrophysiology allows for the direct measurement and quantification of block of voltage-gated sodium channels (NaV's), and allows the determination of the time- and voltage-dependence of block which has been interpreted as differential binding to the resting, open, and inactivated states of the sodium channel (Hille, B., Journal of General Physiology (1977), 69: 497-515).
(§3) The following patch voltage clamp electrophysiology studies were performed on representative compounds of the invention using human embryonic kidney cells (HEK), permanently transfected with an expression vector containing the full-length cDNA coding for the desired human sodium channel α-subunit, grown in culture media containing 10% FBS, 1% PSG, and 0.5 mg/mL G418 at 37° C. with 5% CO2. […] NaV1.7 and NaV1.5 cDNAs (NM_002977 and AC137587; SCN5A, respectively) were stably expressed in HEK-293 cells. The β1 subunit was coexpressed in both the NaV1.7 and NaV1.5 cell lines.
(§4) Sodium currents were measured using the patch clamp technique in the whole-cell configuration using either a PatchXpress automated voltage clamp or manually using an Axopatch 200B (Axon Instruments) or Model 2400 (A-M systems) amplifier. The manual voltage clamp protocol was as follows: Borosilicate glass micropipettes were fire-polished to a tip diameter yielding a resistance of 2-4 Mohms in the working solutions. The pipette was filled with a solution comprised of: 5 mM NaCl, 10 mM CsCl, 120 mM CsF, 0.1 mM CaCl2, 2 mM MgCl2, 10 mM HEPES, 10 mM EGTA; and adjusted to pH 7.2 with CsOH. The external solution had the following composition: 140 mM NaCl, 5 mM KCl, 2 mM CaCl2, 1 mM MgCl2, 10 mM HEPES; and adjusted to pH 7.4 with NaOH. In some studies, the external sodium was reduced by equimolar replacement with choline. Osmolarity in the CsF internal and NaCl external solutions was adjusted to 300 mOsm/kg and 310 mOsm/kg with glucose, respectively. All recordings were performed at ambient temperature in a bath chamber with a volume of 150 μL. Control sodium currents were measured in 0.5% DMSO. Controls and representative compounds of the invention were applied to the recording chamber through a 4-pinch or 8-pinch valve bath perfusion system manufactured by ALA Scientific Instruments.
(§5) Currents were recorded at 40 kHz sampling frequency, filtered at […], and stored using a Digidata-1322A analogue/digital interface with the pClamp software (Axon Instruments). Series resistance compensation was applied (60-80%). […] All statistics in this study are given as mean±SD.
(§6) The membrane potential was maintained at a voltage where inactivation of the channel is complete (which was −60 mV for both NaV1.7 and NaV1.5). The voltage is then stepped back to a very negative (Vhold=[…]) voltage for 20 ms and then a test pulse is applied to quantify the compound block. The 20 ms brief repolarization was long enough for compound-free channels to completely recover from fast inactivation, but the compound-bound channels recovered more slowly such that negligible recovery could occur during this interval. The percent decrease in sodium current following wash-on of compound was taken as the percent block of sodium channels.

[3] = target: T3, NaV1.7 (Homo sapiens, UniProt Q15858); assay: Patch voltage clamp electrophysiology assay (EP), NaV1.7 in HEK-293 cells; type: cell-based; settings: HEK-293, β1 coexpressed, held at -60 mV (inactivated state)
T3 construct: expression vector containing the full-length cDNA coding for the desired human sodium channel α-subunit; expressed in transfected cells; host or cells: HEK-293
T3 sequence (Q15858 1-1977 isoform Q15858-3): as the sequence (Q15858 1-1977 isoform Q15858-3) above
T3 sequence (Q07699 19-218 partner): as the sequence (Q07699 19-218 partner) above
Excerpt: as §1, §2, §3, §4, §5, §6

| pIC50 [1] | pIC50 [3] | Compound | pIC50 ([2]; human, pH 7.4) | pIC50 [2] |
| --- | --- | --- | --- | --- |
| 6.55 | 6.26 | Cc1nn(CC2CN(C(c3ccccc3)c3ccccc3)C2)c2cc(F)c(C(=O)NS(C)(=O)=O)cc12 [Example 23, 1-((1-benzhydrylazetidin-3-yl)methyl)-6-fluoro-3-methyl-N-(methylsulfonyl)-1H-indazole-5-carboxamide] | ≤ 4.52 |  |
| 7.70 | 6.96 | Cc1nn([C@@H]2CCN([C@H](C)c3cc(Cl)cc(OC(F)(F)F)c3)C2)c2cc(F)c(C(=O)NS(=O)(=O)C3CC3)cc12 [Example 22, 1-((R)-1-((R)-1-(3-chloro-5-(trifluoromethoxy)phenyl)ethyl)pyrrolidin-3-yl)-N-(cyclopropylsulfonyl)-6-fluoro-3-methyl-1H-indazole-5-carboxamide, trifluoroacetic acid salt] |  | 5.32 |
| 7.32 | 7.06 | Cc1nn(C2CN(C(c3ccccc3)c3ccccc3)C2)c2cc(F)c(C(=O)NS(C)(=O)=O)cc12 [Example 24, 1-(1-benzhydrylazetidin-3-yl)-6-fluoro-3-methyl-N-(methylsulfonyl)-1H-indazole-5-carboxamide] |  | 5.07 |
| 6.43 | 5.51 | Cc1nn(C23CC4CC(CC(C4)C2)C3)c2cc(F)c(C(=O)NS(C)(=O)=O)cc12 [Example 36, 1-((3s,5s,7s)-adamantan-1-yl)-6-fluoro-3-methyl-N-(methylsulfonyl)-1H-indazole-5-carboxamide] | ≤ 4.52 |  |
| 6.00 | 4.96 | Cc1nn(C2CCCCC2)c2cc(F)c(C(=O)NS(C)(=O)=O)cc12 [Example 38, 1-cyclohexyl-6-fluoro-3-methyl-N-(methylsulfonyl)-1H-indazole-5-carboxamide] | ≤ 4.52 |  |
| 6.52 | 5.47 | Cc1nn(CC23CC4CC(CC(C4)C2)C3)c2cc(F)c(C(=O)N[S@TB3](=O)(=O)N3CCC3)cc12 [Example 41, 1-(((1s,3s)-adamantan-1-yl)methyl)-N-(azetidin-1-ylsulfonyl)-6-fluoro-3-methyl-1H-indazole-5-carboxamide] | ≤ 4.52 |  |

The next lines start with the molecule.

| Compound | pIC50 [1] | pIC50 [3] | pIC50 ([2]; human, pH 7.4) | pIC50 [2] |
| --- | --- | --- | --- | --- |
| Cc1nn(C2CCN(Cc3cc(Cl)cc(OC(F)(F)F)c3)CC2)c2cc(F)c(C(=O)NS(C)(=O)=O)cc12 [Example 4, 1-(1-(3-chloro-5-(trifluoromethoxy)benzyl)piperidin-4-yl)-6-fluoro-3-methyl-N-(methylsulfonyl)-1H-indazole-5-carboxamide 2,2,2-trifluoroacetate] | 7.62 | 6.38 |  | 4.59 |
| Cc1nn([C@@H]2CCN([C@@H](C)c3cc(Cl)cc(Cl)c3)C2)c2cc(F)c(C(=O)NS(C)(=O)=O)cc12 [Example 18, 1-((R)-1-((S)-1-(3,5-dichlorophenyl)ethyl)pyrrolidin-3-yl)-6-fluoro-3-methyl-N-(methylsulfonyl)-1H-indazole-5-carboxamide, trifluoroacetic acid salt] | 7.40 | 6.82 |  | 4.77 |
| Cc1nn(C2CCN([C@@H](C)c3cc(Cl)cc(Cl)c3)CC2)c2cc(F)c(C(=O)NS(=O)(=O)C3CC3)cc12 [Example 10, (S)-N-(cyclopropylsulfonyl)-1-(1-(1-(3,5-dichlorophenyl)ethyl)piperidin-4-yl)-6-fluoro-3-methyl-1H-indazole-5-carboxamide] | 8.00 | 7.48 |  | 4.85 |
| Cc1nn(C2CCN(c3ccc(Cl)c(C(F)(F)F)n3)CC2)c2cc(F)c(C(=O)NS(=O)(=O)C3CC3)cc12 [Example 13, 1-(1-(5-chloro-6-(trifluoromethyl)pyridin-2-yl)piperidin-4-yl)-N-(cyclopropylsulfonyl)-6-fluoro-3-methyl-1H-indazole-5-carboxamide 2,2,2-trifluoroacetate] | 7.82 | 6.60 |  | 5.62 |
| Cc1nn(C2CN(Cc3cc(Cl)cc(OC(F)(F)F)c3)C2)c2cc(F)c(C(=O)NS(=O)(=O)C3CC3)cc12 [Example 15, 1-(1-(3-chloro-5-(trifluoromethoxy)benzyl)azetidin-3-yl)-N-(cyclopropylsulfonyl)-6-fluoro-3-methyl-1H-indazole-5-carboxamide] | 7.96 | 7.06 |  | 5.49 |
| Cc1nn(C2CCN(Cc3cc(Cl)ccc3C(F)(F)F)CC2)c2cc(F)c(C(=O)NS(=O)(=O)C3CC3)cc12 [Example 8, 1-(1-(5-chloro-2-(trifluoromethyl)benzyl)piperidin-4-yl)-N-(cyclopropylsulfonyl)-6-fluoro-3-methyl-1H-indazole-5-carboxamide] | 8.30 | 7.59 |  | 6.21 |
| Cc1nn(-c2cnc(OCC(C)C)c(Cl)c2)c2cc(F)c(C(=O)NS(=O)(=O)N3CCC3)cc12 [Example 42, N-(azetidin-1-ylsulfonyl)-1-(5-chloro-6-isobutoxypyridin-3-yl)-6-fluoro-3-methyl-1H-indazole-5-carboxamide] | 8.15 | 7.15 | ≤ 4.52 |  |
| Cc1nn([C@@H]2CCN([C@@H](C)c3cc(Cl)cc(Cl)c3)C2)c2cc(F)c(C(=O)NS(=O)(=O)C3CC3)cc12 [Example 19, N-(cyclopropylsulfonyl)-1-((R)-1-((S)-1-(3,5-dichlorophenyl)ethyl)pyrrolidin-3-yl)-6-fluoro-3-methyl-1H-indazole-5-carboxamide, trifluoroacetic acid salt] | 7.92 | 7.39 |  | 5.20 |
